# In patent publication US8217013B2, “Polyene diester antibiotics” (priority 2007, dated 2012):
# Experiments:
# [1] = test system: esterase; assay: Test of esterase hydrolysis in sheep blood serum (HPLC); format: in vitro ADME
# Protocol: Test of Esterase […]
# Experiment drugs: the amphotericin B methyl pivalate prepared by example 1
# Control drug: amphotericin B (standard product)
# The stationary phase: Hypersil ODS2 5 um 4.6 mm×250 mm
# The mobile phase: methanol: acetonitrile: EDTA-2Na (0.5 mmol)=60:20:20 flow rate: 1 ml/min
# Detection system: ultraviolet detection, detection wavelength: 410 nm
# Taking appropriate amount of the above mentioned amphotericin B, and amphotericin B methyl pivalate prepared by example 1, dissolving in a little dimethyl sulfoxide respectively, using pH7 phosphate buffer to dilute into solution which is equivalent to contain amphotericin B 280 Units per milliliter, taking 1 ml and using pH7 phosphate buffer to quantitatively dilute into solution which is equivalent to contain amphotericin B 2.8 μg/ml.
# Again, preparing the solution according to the same method, adding 10% defibered sheep blood serum, using pH7 phosphate buffer to quantitatively dilute into solution which is equivalent to contain amphotericin B 2.8 μg/ml.
# 4. Mixing the amphotericin B methyl pivalate prepared by example 1 with sheep blood serum at 37° C. and culturing.
# Referring to the test conditions of HPLC of example 25, wherein the mobile phase is acetonitrile: 0.05M ammonium acetate solution=60:40.
# [2] = test system: Candida albicans; assay: Test of antibacterial activity in vitro (bacteria-inhibition zone); format: cell-based
# Excerpt: (§1) Test of Antibacterial Activity In Vitro
# (§2) Experiment drugs: the polyene diester compounds prepared by examples 1-12
# (§3) Control drugs: amphotericin B (standard product) • mycostatin (standard product) • natamycin (standard product)
# 2.1 Preparation of Candida albicans suspension: PHARMACOPOEIA OF THE PEOPLES REPUBLIC OF CHINA, second part, 2005 edition, appendix p 81-84.
# (§4) Taking appropriate amount of the above mentioned amphotericin B, mycostatin, natamycin and the polyene diester compounds prepared by examples 1-8 and 10-12, dissolving in a little dimethyl sulfoxide respectively, using pH7 phosphate buffer to dilute into solution which is equivalent to contain amphotericin B, mycostatin, natamycin 280 Units per milliliter, taking 1 ml and using pH7 phosphate buffer to quantitatively dilute into solution which is equivalent to contain amphotericin B 1.4 μg/ml and 2.8 μg/ml, and is equivalent to contain 5.6 μg/ml of mycostatin and natamycin.
# (§5) In addition, preparing the solution according to the same method, adding 40% defibered sheep serum, using pH7 phosphate buffer to quantitatively dilute into unit solution which is equivalent to contain amphotericin B 1.4 μg/ml and 2.8 μg/ml, and is equivalent to contain 5.6 μg/ml of mycostatin and natamycin. Testing according to PHARMACOPOEIA OF THE PEOPLES REPUBLIC OF CHINA, second part, 2005 edition, appendix XIA The Antibiotics Microorganism Test.
# (§6) Medium: Improved Martin Agar Medium, PHARMACOPOEIA OF THE PEOPLES REPUBLIC OF CHINA, second part, 2005 edition, appendix p 84.
# Test method: Double-plate counting method; […] bacteria bed 15 ml to replace the double layers, culture temperature: 37° C., time: 24 h; strain concentration: 1% […]
# [3] = test system: Candida mycoderma; assay: as above; format: cell-based
# Excerpt: as §1, §2, §3
# 2.3 Preparation of Candida mycoderrna suspension: the method is as same as preparation of Saccharomyces cerevisiae suspension
# as §4, §5, §6
# (§7) Test method: Double-plate counting method; […] bacteria bed 15 ml to replace the double layers, culture temperature: 37° C., time: 24 h; strain concentration: 1%
# (§8) Medium: Modified Martin Broth Medium
# [4] = test system: Saccharomyces cerevisiae; assay: as above; format: cell-based
# Excerpt: as §1, §2, §3
# 2.2 Preparation of Saccharomyces cerevisiae suspension: PHARMACOPOEIA OF THE PEOPLES REPUBLIC OF CHINA, second part, 2005 edition, appendix p 80, p 83.
# as §4, §5, §6, §7, §8
# [5] = 1.4 μg/ml after conversion, no serum
# [6] = 1.4 μg/ml after conversion, serum added (40% defibered sheep serum)
# [7] = 2.8 μg/ml after conversion, no serum
# [8] = 2.8 μg/ml after conversion, serum added (40% defibered sheep serum)
# [9] = 5.6 μg/ml after conversion, no serum
# [10] = 5.6 μg/ml after conversion, serum added (40% defibered sheep serum)
substance,measurement,setting,value
amphotericin B methyl pivalate,"hydrolysis by esterase to release the original drug, after 24 hours","[1]; 10% defibered sheep blood serum, 37° C., 24 hours",most of the diester derivative is hydrolyzed by esterase to release amphotericin B
same,"hydrolysis by esterase under sheep blood serum cultivation, release of the original drug","[1]; sheep blood serum, 37° C., 2, 6 and 24 hours",gradually hydrolyzed by esterase
same,"diameter of the bacteria-inhibition zone, Candida albicans 0 h",[2]; [5],+ (7-9 mm: +)
same,"diameter of the bacteria-inhibition zone, Candida albicans 0 h",[2]; [6],+ (7-9 mm: +)
same,"diameter of the bacteria-inhibition zone, Candida albicans 0 h",[2]; [7],++ (9-12 mm: ++)
same,"diameter of the bacteria-inhibition zone, Candida albicans 0 h",[2]; [8],++ (9-12 mm: ++)
same,"diameter of the bacteria-inhibition zone, Candida albicans 6 h",[2]; [5],+ (7-9 mm: +)
same,"diameter of the bacteria-inhibition zone, Candida albicans 6 h",[2]; [6],++ (9-12 mm: ++)
same,"diameter of the bacteria-inhibition zone, Candida albicans 6 h",[2]; [7],++ (9-12 mm: ++)
same,"diameter of the bacteria-inhibition zone, Candida albicans 24 h",[2]; [5],+ (7-9 mm: +)
same,"diameter of the bacteria-inhibition zone, Candida albicans 24 h",[2]; [7],++ (9-12 mm: ++)
same,"diameter of the bacteria-inhibition zone, Candida albicans 48 h",[2]; [5],+ (7-9 mm: +)
same,"diameter of the bacteria-inhibition zone, Candida albicans 48 h",[2]; [7],++ (9-12 mm: ++)
same,"diameter of the bacteria-inhibition zone, Candida mycoderma 0 h",[3]; [5],+ (7-9 mm: +)
same,"diameter of the bacteria-inhibition zone, Candida mycoderma 0 h",[3]; [6],+ (7-9 mm: +)
same,"diameter of the bacteria-inhibition zone, Candida mycoderma 0 h",[3]; [7],++ (9-12 mm: ++)
same,"diameter of the bacteria-inhibition zone, Candida mycoderma 0 h",[3]; [8],++ (9-12 mm: ++)
same,"diameter of the bacteria-inhibition zone, Candida mycoderma 6 h",[3]; [5],+ (7-9 mm: +)
same,"diameter of the bacteria-inhibition zone, Candida mycoderma 6 h",[3]; [6],++ (9-12 mm: ++)
same,"diameter of the bacteria-inhibition zone, Candida mycoderma 6 h",[3]; [7],++ (9-12 mm: ++)
same,"diameter of the bacteria-inhibition zone, Candida mycoderma 24 h",[3]; [5],+ (7-9 mm: +)
same,"diameter of the bacteria-inhibition zone, Candida mycoderma 24 h",[3]; [7],++ (9-12 mm: ++)
same,"diameter of the bacteria-inhibition zone, Candida mycoderma 48 h",[3]; [5],+ (7-9 mm: +)
same,"diameter of the bacteria-inhibition zone, Candida mycoderma 48 h",[3]; [7],++ (9-12 mm: ++)
same,"diameter of the bacteria-inhibition zone, Saccharomyces cerevisiae 0 h",[4]; [5],+ (7-9 mm: +)
same,"diameter of the bacteria-inhibition zone, Saccharomyces cerevisiae 0 h",[4]; [6],+ (7-9 mm: +)
same,"diameter of the bacteria-inhibition zone, Saccharomyces cerevisiae 0 h",[4]; [7],++ (9-12 mm: ++)
same,"diameter of the bacteria-inhibition zone, Saccharomyces cerevisiae 0 h",[4]; [8],++ (9-12 mm: ++)
same,"diameter of the bacteria-inhibition zone, Saccharomyces cerevisiae 6 h",[4]; [5],+ (7-9 mm: +)
same,"diameter of the bacteria-inhibition zone, Saccharomyces cerevisiae 6 h",[4]; [7],++ (9-12 mm: ++)
same,"diameter of the bacteria-inhibition zone, Saccharomyces cerevisiae 24 h",[4]; [5],+ (7-9 mm: +)
same,"diameter of the bacteria-inhibition zone, Saccharomyces cerevisiae 24 h",[4]; [7],++ (9-12 mm: ++)
same,"diameter of the bacteria-inhibition zone, Saccharomyces cerevisiae 48 h",[4]; [5],+ (7-9 mm: +)
same,"diameter of the bacteria-inhibition zone, Saccharomyces cerevisiae 48 h",[4]; [7],++ (9-12 mm: ++)
mycostatin methyl pivalate,"diameter of the bacteria-inhibition zone, Candida albicans 0 h",[2]; [9],+ (7-9 mm: +)
same,"diameter of the bacteria-inhibition zone, Candida albicans 0 h",[2]; [10],+ (7-9 mm: +)
same,"diameter of the bacteria-inhibition zone, Candida albicans 6 h",[2]; [9],+ (7-9 mm: +)
same,"diameter of the bacteria-inhibition zone, Candida albicans 6 h",[2]; [10],+ (7-9 mm: +)
same,"diameter of the bacteria-inhibition zone, Candida albicans 24 h",[2]; [9],+ (7-9 mm: +)
same,"diameter of the bacteria-inhibition zone, Candida albicans 24 h",[2]; [10],+ (7-9 mm: +)
same,"diameter of the bacteria-inhibition zone, Candida albicans 48 h",[2]; [9],+ (7-9 mm: +)
same,"diameter of the bacteria-inhibition zone, Candida albicans 48 h",[2]; [10],+ (7-9 mm: +)
same,"diameter of the bacteria-inhibition zone, Candida mycoderma 0 h",[3]; [10],+ (7-9 mm: +)
same,"diameter of the bacteria-inhibition zone, Candida mycoderma 6 h",[3]; [10],++ (9-12 mm: ++)
same,"diameter of the bacteria-inhibition zone, Saccharomyces cerevisiae 0 h",[4]; [9],++ (9-12 mm: ++)
same,"diameter of the bacteria-inhibition zone, Saccharomyces cerevisiae 0 h",[4]; [10],+ (7-9 mm: +)
same,"diameter of the bacteria-inhibition zone, Saccharomyces cerevisiae 6 h",[4]; [9],++ (9-12 mm: ++)
same,"diameter of the bacteria-inhibition zone, Saccharomyces cerevisiae 6 h",[4]; [10],++ (9-12 mm: ++)
same,"diameter of the bacteria-inhibition zone, Saccharomyces cerevisiae 24 h",[4]; [9],++ (9-12 mm: ++)
same,"diameter of the bacteria-inhibition zone, Saccharomyces cerevisiae 48 h",[4]; [9],++ (9-12 mm: ++)
